Assay [1] is described as follows: cells.
For the next assay, the target named is Major prion protein (Homo sapiens, UniProt P04156). It counts as functional, cell-based.
Assay [2] can be described thus: T. cruzi growth inhibition in host cells, dose response, cell-based, plate reader, dry powder, set 2 (AID 652275). The format is functional.
Assay [3] concerns the target T1, Nuclear receptor subfamily 0 group B member 1 (Homo sapiens, UniProt P51843).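 Note: HEK293T cells transfected with SF-1 and DAX-1 plus StAR promoter luciferase reporter.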
T1 sequence (P51843 whole entry): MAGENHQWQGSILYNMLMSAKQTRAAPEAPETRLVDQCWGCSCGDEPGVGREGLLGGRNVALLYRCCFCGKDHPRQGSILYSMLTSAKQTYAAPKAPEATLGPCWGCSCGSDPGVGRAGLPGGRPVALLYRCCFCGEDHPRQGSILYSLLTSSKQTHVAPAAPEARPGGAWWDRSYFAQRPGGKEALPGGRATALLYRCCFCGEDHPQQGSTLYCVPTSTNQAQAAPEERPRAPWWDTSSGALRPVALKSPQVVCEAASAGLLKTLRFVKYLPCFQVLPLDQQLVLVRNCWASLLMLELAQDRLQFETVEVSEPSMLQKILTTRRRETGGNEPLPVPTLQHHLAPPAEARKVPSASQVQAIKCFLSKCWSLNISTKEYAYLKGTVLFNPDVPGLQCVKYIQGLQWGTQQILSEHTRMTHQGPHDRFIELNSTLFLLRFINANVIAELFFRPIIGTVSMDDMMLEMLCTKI
The format is functional, cell-based.

Assay [4] can be described thus: cells. It counts as functional, cell-based.
The next assay concerns the target fMet-Leu-Phe receptor (Homo sapiens, UniProt P21462). Briefly: formyl peptide receptor binders – dose response (AID 519). It counts as functional.
Assay [5] addresses T2, Corticotropin-releasing factor receptor 2/Corticotropin-releasing factor-binding protein (Homo sapiens, UniProt P24387+Q13324).
T2 sequence (Q13324 whole entry): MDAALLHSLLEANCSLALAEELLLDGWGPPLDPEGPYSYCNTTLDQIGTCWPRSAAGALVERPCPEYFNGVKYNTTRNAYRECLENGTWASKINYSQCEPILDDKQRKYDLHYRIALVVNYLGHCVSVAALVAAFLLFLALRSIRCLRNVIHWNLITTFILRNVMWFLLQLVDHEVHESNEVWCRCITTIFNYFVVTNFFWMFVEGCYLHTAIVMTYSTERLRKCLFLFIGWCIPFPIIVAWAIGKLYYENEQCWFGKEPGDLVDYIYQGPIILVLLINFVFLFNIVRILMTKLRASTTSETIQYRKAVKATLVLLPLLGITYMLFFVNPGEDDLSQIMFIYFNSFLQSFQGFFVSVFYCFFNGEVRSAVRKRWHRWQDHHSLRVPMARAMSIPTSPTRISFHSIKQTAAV
T2 sequence (P24387 whole entry): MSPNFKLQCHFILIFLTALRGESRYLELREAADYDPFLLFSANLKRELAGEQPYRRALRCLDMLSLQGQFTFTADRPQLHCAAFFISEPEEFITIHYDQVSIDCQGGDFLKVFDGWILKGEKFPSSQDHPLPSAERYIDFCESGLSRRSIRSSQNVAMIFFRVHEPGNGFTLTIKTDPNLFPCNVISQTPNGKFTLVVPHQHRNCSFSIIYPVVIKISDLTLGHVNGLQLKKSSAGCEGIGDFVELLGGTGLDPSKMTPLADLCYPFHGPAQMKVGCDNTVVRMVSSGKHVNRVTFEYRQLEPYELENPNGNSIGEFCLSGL
Briefly: activators of CRF receptor 2 with binding protein – uHTS hits, confirmation (AID 602473). It counts as functional. The settings on record: read-out: EC50_Mean.

The target in assay [6] is Long-chain-fatty-acid--AMP ligase FadD28 (Mycobacterium tuberculosis, UniProt P9WQ59). Briefly: Fluorescence polarization aasay to screen for inhibitors that compete for the binding of FadD28 to a bisubstrate Measured in Biochemical System Using Plate Reader - 2147-01_Inhibitor_Dose_CherryPick_Activity. It counts as functional, Mycobacterium tuberculosis H37Rv.
Assay [7] in a line: cells. The settings on record: A549.
A short description of assay [8]: cells. The settings on record: HEK293.
Assay [9] is described as follows: viability loss in HepG2 liver cells – cell-based, ATP luminescence, cherry-pick, set 6, cytotoxicity control, dose response (AID 1053125). It counts as functional.
For assay [10], the target named is T3, Oxysterols receptor LXR-beta (Homo sapiens, UniProt P55055).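 Note: Cell-based luminescence dose-response assay of agonist activity at LXR, run as a confirmatory counterscreen to a daf-12 agonist screen; HEK293 cells with Gal4-LXR fusion and GAL4-driven luciferase reporter; agonist potency from rising luciferase signal of a Gal4-LXR reporter.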
T3 sequence (P55055 whole entry): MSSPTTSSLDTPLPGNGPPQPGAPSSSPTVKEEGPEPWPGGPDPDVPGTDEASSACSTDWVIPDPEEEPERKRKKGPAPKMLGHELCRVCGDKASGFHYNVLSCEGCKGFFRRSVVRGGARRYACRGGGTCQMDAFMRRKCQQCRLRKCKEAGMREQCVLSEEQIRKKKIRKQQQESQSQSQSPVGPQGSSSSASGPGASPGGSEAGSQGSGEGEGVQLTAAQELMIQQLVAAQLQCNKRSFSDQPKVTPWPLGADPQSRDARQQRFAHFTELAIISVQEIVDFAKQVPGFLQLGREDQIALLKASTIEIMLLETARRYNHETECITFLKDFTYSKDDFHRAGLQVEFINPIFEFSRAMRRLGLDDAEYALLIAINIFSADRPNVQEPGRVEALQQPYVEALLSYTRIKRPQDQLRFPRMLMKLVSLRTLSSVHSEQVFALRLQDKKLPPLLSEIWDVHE
It counts as functional, cell-based.

Assay [11] is described as follows: cells. This is another data set of the same source.
Assay [12] concerns BJ. Briefly: BJ-TERT-LT-ST fibroblast viability loss – cell-based, RAS-independent, luminescence, dose response (AID 1935).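 Note: BJ fibroblasts immortalized with TERT plus LT and ST oncogenes.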 The format is functional. The settings on record: Homo sapiens.
Assay [13] deals with BJ. Nature of the assay: growth inhibition of engineered Ras-driven BJ cells – cell-based, alamar blue fluorescence, cherrypicked samples, dose response (AID 2631).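 Note: confirmatory dose-response assay in RAS-dependent BJ fibroblasts engineered with TERT, LT and ST, with cytotoxicity read by fluorescence.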 The format is functional. Particulars: Homo sapiens.
The test system of assay [14] is BJ. Nature of the assay: BJ-TERT fibroblast viability loss – cell-based, RAS-independent, luminescence, dose response (AID 1933). It counts as functional. Particulars: Homo sapiens.
The nature of assay [15]: luciferase reporter signal suppression in cells – H4 neuroglioma cells, luminescence, dose response (AID 1990). It counts as functional, cell-based.
The nature of assay [16]: viability loss in HEK293T cells – cell-based, cherry-picks, cytotoxicity control for HIV Vif inhibitor project, dose response (AID 652208). The format is functional.
Assay [17] in a line: DRD fibroblast viability loss – cell-based, non-viral oncogenic, luminescence, dose response (AID 1934). The settings on record: Homo sapiens. The format is functional.
The next assay concerns INS1. Briefly: INS-1E survival protection against cytokine death – cell-based, luminescence, retest, dose response (AID 449756).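 Note: cell death triggered by IL-1 beta plus TNF-alpha plus IFN-gamma mixture; protective hits raise ATP signal compared with cytokine alone wells.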 The settings on record: Rattus norvegicus. The format is functional.
The test system of assay [18] is BJ. Nature of the assay: cells. The format is functional, cell-based. The settings on record: Homo sapiens.
A short description of assay [19]: Luminescence Cell-Based Dose Response HTS to Identify Inhibitors of 5'UTR Stem-Loop Driven Prion Protein mRNA Translation in H4 Neuroglioblastoma Cells. [Related pubchem assays: 1827 (Project Summary), 1813 (Primary HTS)]. The format is functional.
A short description of assay [20]: viability of uninfected HEp-2 cells – cell-based, HTS, cytotoxicity control for RSV inhibitor project, dose response (AID 2410). It counts as functional. The settings on record: human respiratory syncytial virus.
A short description of assay [21]: A549 cell cytotoxicity, dose response, cytotoxicity control, plate reader, cherry-pick, antagonist series (AID 743412). The format is functional, cell-based.
Assay [22] is described as follows: toxicity toward HepG2 liver cells – cell-based, plate reader, cherry-pick, antagonist series, cytotoxicity control, dose response (AID 743416). It counts as functional.
Assay [23] concerns the target Peroxisome proliferator-activated receptor gamma/Nuclear receptor coactivator 3 (Homo sapiens, UniProt P37231). Nature of the assay: TR-FRET dose response biochemical High Throughput Screening assay for agonists of the steroid receptor coactivator 3 (SRC-3) recruitment by the peroxisome proliferator-activated receptor gamma (PPAR gamma): non-selective agonists. [Related pubchem assays: 1301 (Confirmation screen.), 1048 (Primary screen.)]. The format is functional.

Assay [24] has as its target Peroxisome proliferator-activated receptor gamma/Nuclear receptor coactivator 1 (Homo sapiens, UniProt P37231). Briefly: TR-FRET dose response biochemical High Throughput Screening assay for agonists of the steroid receptor coactivator 1 (SRC-1) recruitment by the peroxisome proliferator-activated receptor gamma (PPAR gamma): non-selective agonists. [Related pubchem assays (depositor defined):AID1300, AID1808, AID504735, AID631]. It counts as protein assay.

Assay [25] deals with Peroxisome proliferator-activated receptor gamma/Nuclear receptor coactivator 2 (Homo sapiens, UniProt P37231). Briefly: TR-FRET dose response biochemical High Throughput Screening assay for agonists of the steroid receptor coactivator 2 (SRC-2) recruitment by the peroxisome proliferator-activated receptor gamma (PPAR gamma): non-selective agonists. [Related pubchem assays: 1297, 1032 ]. It counts as functional.

Assay [26] concerns the target Mitogen-activated protein kinase 10 (Homo sapiens, UniProt P53779). Nature of the assay: Dose response biochemical screening assay for inhibitors of c-Jun N-Terminal Kinase 3 (JNK3). [Related pubchem assays: 746 ].
Assay [27] is described as follows: IGROV1 cell killing – plate reader, dry powder samples, PAX8 inhibitor project, dose response (AID 743043). Particulars: IGROV-1. It counts as functional, cell-based.
The target in another assay is Paired box protein Pax-8 (Homo sapiens, UniProt Q06710). Nature of the assay: PAX8 transcriptional activity inhibition in RMG-I – RMG-I cells, luciferase, cherry-pick, dose response (AID 687027).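 Note: luciferase reporter driven by Pax8 target thyroperoxidase promoter measured by SteadyGlo luminescence.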 It counts as functional, cell-based.
Assay [28] is described as follows: OVCAR-3 cell viability loss – plate reader, dry powder samples, PAX8 inhibitor project, dose response (AID 743044). The format is functional, cell-based.

Each structure is given as a SMILES string. Active and inactive are the calls of the source.

For `O=C(c1ccc(F)cc1)c1cn(Cc2ccc(F)cc2)c2cc3c(cc2c1=O)OCCO3`, the figures for the IC50 in the assay “cells [1]” and on Major prion protein were > 138 µM (inactive) and 3.03 µM (active), respectively.

As for `CCN(C)C[C@H]1Oc2c(NC(=O)c3ccncc3)cccc2C(=O)N(C(C)C)[C@@H]1C`, the AC50 in [2] is 0.0842 µM (active).

On to `COc1cccc(CN(C)C[C@H]2Oc3c(NC(=O)c4ccncc4)cccc3C(=O)N([C@@H](C)CO)C[C@@H]2C)c1`, for which, in assay [2], the AC50 was 0.0568 µM (active).

As to `CN1CCN(c2ccc(-c3cccc(NC(=O)COc4ccccc4)c3)nn2)CC1`, the IC50 (in assay [3]; in “cells [4]”) was > 67.5 µM (inactive) in each case.

As for `COc1ccc(C2C(C(=O)c3ccco3)=C(O)C(=O)N2CCc2ccccc2)cc1OC` (stereo not drawn), at fMet-Leu-Phe receptor, the Ki was 36.9 µM (inactive).

Consider `O=C1N=C(S)SC1=Cc1ccc(N(CCCl)CCCl)cc1`, for which the EC50 in assay [5] is 5.45 µM (active). The AC50 in assay [6] was 66.7 µM (active).

For `CC(=O)Nc1cccc(-c2ccnc3c2CC(C(=O)NCc2cccc(Cl)c2)O3)c1` (stereo not drawn), the AC50 in the assay “cells [7]” was > 52 µM (inactive); in “cells [8]”, 40.1 µM (active); in assay [9] it was > 52 µM (inactive).

As to `Cc1ccc(C(=O)Nc2ncccc2O)o1`, the IC50 is 24.7 µM (inactive) in [3] and > 67.6 µM (inactive) in the assay “cells [4]”.

Consider `c1ccc(-c2csc(Nc3ccc4c(c3)OCCO4)n2)cc1`, for which the EC50 (in assay [10]; in “cells [11]”) was > 67.5 µM (inactive) each time.

As to `CC1CN(S(=O)(=O)c2ccc(C(=O)NCCCn3ccnc3)cc2)CC(C)O1` (stereo not drawn), the EC50 is 3.76 µM (inconclusive) in the assay on BJ [12]; 0.39 µM (active) with BJ [13]; > 150 µM (not active) with BJ [14]; 11.1 µM (active) in assay [15]; 13.2 µM (active) in [17]; 5.83 µM (inconclusive) with BJ [18]. Also, in [19], the EC50 was 7.94 µM (active). In addition, the AC50 was > 52 µM (inactive) in [16] and 1.17 µM (active) in the assay on INS1.

With `Cc1nc2c(-c3ccc(F)cc3)c(C)nn2c(C)c1CCC(=O)NC(C)CCc1ccco1` (stereo not drawn), in assay [20], the CC50 is > 50 µM (active). Further, the Ki at fMet-Leu-Phe receptor was > 66.7 µM (inactive).

On to `Cn1c(=O)c2cc(NC(=O)NCc3ccccc3)ccc2n1C/C=C/c1ccccc1`, for which the AC50 in assay [21] was 18.2 µM (active); in assay [22] it was 36.9 µM (active).

On to `COc1ccc2c(Cl)c(C(N)=O)sc2c1`, for which the EC50 in [23] is > 79.4 µM (not active); in assay [24] it was > 79.4 µM (inactive); in assay [25], 16.7 µM (not active). The IC50 was > 138 µM (inactive) in the assay “cells [1]”, 2.46 µM (active) at Major prion protein and 68.3 µM (not active) in assay [26].

For the compound `C[C@H](CO)N1C[C@H](C)[C@H](CN(C)Cc2ccc(C(F)(F)F)cc2)OCCCC[C@H](C)Oc2ccc(NC(=O)Nc3ccc4c(c3)OCO4)cc2C1=O`, the results for the AC50 (in [27]; on Paired box protein Pax-8; in assay [28]) were 40.3 µM (active), 5.42 µM (active) and 28.6 µM (active), respectively.

These data come from ChEMBL document CHEMBL1201862, “PubChem BioAssay data set” (2004).
